Experimental data from US11730714B2, “Compounds for the treatment of neuromuscular disorders” (NMD PHARMA A/S, priority 2017, dated 2023).

How the values were obtained:
[1] = test system: isolated rat soleus muscles; test: Recovery of nerve-stimulated force in isolated rat soleus muscles with ACh receptors inhibited by 2 μM rocuronium; assay type: cell-based; conditions: 50 μM C8 added after 2 μM rocuronium had reduced force to 51±5%; 8 muscles; p<0.01
Protocol: In a separate series of experiments with 8 isolated rat soleus muscles, ACh receptors were inhibited using 2 μM rocuronium, which is a clinically used neuromuscular blocking agent. Under these conditions the nerve-stimulated force was reduced to 51±5% of force before rocuronium. […] This illustrates the potential of these compounds to be used as reversal agents.

[2] = Pharmacokinetic analysis of C8 in rats, single I.P. dose; assay type: in vivo, rat; conditions: one-bolus I.P. injection
Protocol: This part of the study was performed by Pipeline Biotech A/S (Spørring, Denmark). […] Plasma concentrations (free and bound) were determined by OnTarget Chemistry (Uppsala, Sweden, Project No.: PB243-001).
Before conducting in vivo experiments with animal models of myasthenia gravis, some pharmacokinetic details were obtained for C8 in response to one-bolus I.P. injection.

Lewis rats = test: In situ muscle contractile characteristics: isometric hindlimb force in rats under Cisatracurium infusion; assay type: in vivo, rat; conditions: 20 mg/kg i.v.
Protocol: Isometric hindlimb force was measured in 12-week old female Lewis rats in the presence and absence of compound.
Rats were placed under anesthesia with isoflurane (2-4%), intubated and subsequently connected to a micro ventilator (Microvent 1, Hallowell EMC, US). Two stimulation electrodes were inserted through the skin to stimulate the sciatic nerve. A small incision was made proximal to the ankle, to expose the Achilles tendon, which was tied by cotton string, and connected to a force transducer (Fort250, World Precision Instruments) with adjustable position (Vernier control). The Achilles tendon was then cut distal to the attached cotton string. […]
Muscle contractile properties were assessed by applying an electrical current (under supramaximal voltage conditions) to the nerve and recording the force generated by the muscle. The muscle was stretched until maximal force was obtained, when assessed by 2 Hz stimulation. Isometric force was measured every 30 seconds at 12 Hz (Twitch), 10 pulses, and at every 5 minutes at 80 Hz (Tetanic) for 1 second (80 pulses). […] The effect of test article was assessed on its ability to increase force generated from the stimulation pattern applied. The effect was assessed in the ability to increase force per se (tetanic, 80 Hz, stimulation), and the ratio between individual twitch peaks (12 Hz stimulation). […]

| Compound | nerve-stimulated contractile force recovered to % of force before rocuronium [1] | Cl_obs [2] | VD_obs [2] | average increase in twitch peaks (Lewis rats; 12 Hz stimulation) | average increase in tetanic force (Lewis rats; 80 Hz stimulation) |
| --- | --- | --- | --- | --- | --- |
| C[C@H](Oc1ccc(Br)cc1)C(=O)O [Compound C8, (2S)-2-(4-bromophenoxy)propanoic acid] | 81±4% | 48.69 mL/h | 259.62 mL | – | – |
| (2S)-2-(4-bromophenoxy)(2-^2H)butanoic acid [Compound A-60] | – | – | – | 18.5% | 52.7% |
